Values after ≈ are worked out from the molar mass of the structure shown. Values joined by “and” are separate entries in the source; they are usually repeats but may differ in a detail not shown here. Equal entries are not always repeated. Where two headings read alike, the source gives them in different places.
Assays:
K-562 = assay: NCI single dose (10 µM) SRB screen; format: cell-based, human; settings: leukaemia, 48 h
EKVX = assay: NCI single dose (10 µM) SRB screen; format: cell-based, human; settings: non-small cell lung cancer, 48 h
HOP-62 = assay: NCI single dose (10 µM) SRB screen; format: cell-based, human; settings: non-small cell lung cancer, 48 h
HOP-92 = assay: NCI single dose (10 µM) SRB screen; format: cell-based, human; settings: non-small cell lung cancer, 48 h
HCC-2998 = assay: NCI single dose (10 µM) SRB screen; format: cell-based, human; settings: colon cancer, 48 h
HCT-15 = assay: NCI single dose (10 µM) SRB screen; format: cell-based, human; settings: colon cancer, 48 h
SK-MEL-2 = assay: NCI single dose (10 µM) SRB screen; format: cell-based, human; settings: melanoma, 48 h
UACC-62 = assay: NCI single dose (10 µM) SRB screen; format: cell-based, human; settings: melanoma, 48 h
UO-31 = assay: NCI single dose (10 µM) SRB screen; format: cell-based, human; settings: renal cancer, 48 h
MDA-MB-231 = assay: NCI single dose (10 µM) SRB screen; format: cell-based, human; settings: breast cancer, 48 h
HS578T = assay: NCI single dose (10 µM) SRB screen; format: cell-based, human; settings: breast cancer, 48 h
BT-549 = assay: NCI single dose (10 µM) SRB screen; format: cell-based, human; settings: breast cancer, 48 h
T-47D = assay: NCI single dose (10 µM) SRB screen; format: cell-based, human; settings: breast cancer, 48 h
Pseudomonas aeruginosa = assay: Agar well diffusion method; settings: for zone of inhibition at 1000 µg/mL: Pseudomonas aeruginosa, 24 h, read-out: Diameter of inhibition zone, P. aeruginosa; for % activity index, P. aeruginosa: relative to ciprofloxacin
Candida albicans = assay: Agar well diffusion method; settings: for zone of inhibition at 1000 µg/mL: Candida albicans, 24 h, read-out: Diameter of inhibition zone, C. albicans; for % activity index, C. albicans: relative to clotrimazole
S. aureus = assay: MIC, two-fold microbroth dilution method; settings: Staphylococcus aureus
B. subtilis = assay: MIC, two-fold microbroth dilution method; settings: Bacillus subtilis
E. coli = assay: MIC, two-fold microbroth dilution method; settings: Escherichia coli, read-out: MIC (µg/mL) E. coli
P. aeruginosa = assay: MIC, two-fold microbroth dilution method; settings: Pseudomonas aeruginosa, read-out: MIC (µg/mL) P. aeruginosa
C. albicans = assay: MIC, two-fold microbroth dilution method; settings: Candida albicans
A. flavus = assay: MIC, two-fold microbroth dilution method; settings: Aspergillus flavus, read-out: MIC (µg/mL) A. flavus
[1] = read-out: MIC (µg/mL) S. aureus
[2] = 24 h, read-out: MIC, B. subtilis
[3] = read-out: MIC (µg/mL) B. subtilis
[4] = read-out: MIC (µg/mL) C. albicans

| Compound | GI% K-562 (K-562) | GI% EKVX (EKVX) | GI% HOP-62 (HOP-62) | GI% HOP-92 (HOP-92) | GI% HCC-2998 (HCC-2998) | GI% HCT-15 (HCT-15) | GI% SK-MEL-2 (SK-MEL-2) | GI% UACC-62 (UACC-62) | GI% UO-31 (UO-31) | GI% MDA-MB-231 (MDA-MB-231) | GI% HS578T (HS578T) | GI% BT-549 (BT-549) | GI% T-47D (T-47D) | melting point | zone of inhibition at 1000 µg/mL (Pseudomonas aeruginosa) | % activity index, P. aeruginosa (Pseudomonas aeruginosa) | zone of inhibition at 1000 µg/mL (Candida albicans) | % activity index, C. albicans (Candida albicans) | MIC (S. aureus; [1]) | MIC (B. subtilis; [3]) | other results |
| --- | --- | --- | --- | --- | --- | --- | --- | --- | --- | --- | --- | --- | --- | --- | --- | --- | --- | --- | --- | --- | --- |
| COC(=O)C1=C(C)NC(C)=C(C(=O)OC(C)C)C1c1cccc(C#N)c1 (racemic) [Compound 2a, (±)-3-Isopropyl 5-methyl 4-(3-cyanophenyl)-2,6-dimethyl-1,4-dihydropyridine-3,5-dicarboxylate] | 16% | – (Only GI% ≥ 10 are shown) | – (Only GI% ≥ 10 are shown) | – (Only GI% ≥ 10 are shown) | – (Only GI% ≥ 10 are shown) | – (Only GI% ≥ 10 are shown) | – (Only GI% ≥ 10 are shown) | – (Only GI% ≥ 10 are shown) | – (Only GI% ≥ 10 are shown) | – (Only GI% ≥ 10 are shown) | – (Only GI% ≥ 10 are shown) | – (Only GI% ≥ 10 are shown) | – (Only GI% ≥ 10 are shown) | 128 to 130 °C | 19 mm | 82.6% | 21 mm | 77% and 77.8% | 1 µg/mL (≈ 2.82 µM) | 2 µg/mL (≈ 5.64 µM) | MIC (S. aureus; 24 h, read-out: MIC, S. aureus): 1 µg/mL (≈ 2.82 µM); MIC (B. subtilis; [2]): 2 µg/mL (≈ 5.64 µM); MIC (E. coli): 2 µg/mL (≈ 5.64 µM); MIC (P. aeruginosa): 4 µg/mL (≈ 11.3 µM); MIC (C. albicans; [4]): 4 µg/mL (≈ 11.3 µM); MIC (A. flavus): 8 µg/mL (≈ 22.6 µM) |
| CCOC(=O)C1=C(C)NC(C)=C(C(=O)OC)C1c1cccc(C#N)c1 (racemic) [Compound 2g, (±)-3-Ethyl 5-methyl 4-(3-cyanophenyl)-2,6-dimethyl-1,4-dihydropyridine-3,5-dicarboxylate] | – (Only GI% ≥ 10 are shown) | – (Only GI% ≥ 10 are shown) | – (Only GI% ≥ 10 are shown) | – (Only GI% ≥ 10 are shown) | – (Only GI% ≥ 10 are shown) | – (Only GI% ≥ 10 are shown) | – (Only GI% ≥ 10 are shown) | – (Only GI% ≥ 10 are shown) | – (Only GI% ≥ 10 are shown) | – (Only GI% ≥ 10 are shown) | 10% | – (Only GI% ≥ 10 are shown) | – (Only GI% ≥ 10 are shown) | 151 to 153 °C | 21 mm | 91% and 91.3% | 23 mm | 85% and 85.2% | 0.5 µg/mL (≈ 1.47 µM) | 1 µg/mL (≈ 2.94 µM) | MIC (S. aureus; 24 h, read-out: MIC, S. aureus): 0.5 µg/mL (≈ 1.47 µM); MIC (B. subtilis; [2]): 1 µg/mL (≈ 2.94 µM); MIC (E. coli): 1 µg/mL (≈ 2.94 µM); MIC (P. aeruginosa): 2 µg/mL (≈ 5.88 µM); MIC (C. albicans; 24 h, read-out: MIC, C. albicans): 1 µg/mL (≈ 2.94 µM); MIC (C. albicans; [4]): 1 µg/mL (≈ 2.94 µM); MIC (A. flavus): 2 µg/mL (≈ 5.88 µM) |
| CCOC(=O)C1=C(C)NC(C)=C(C(=O)OC(C)(C)C)C1c1cccc(C#N)c1 (racemic) [Compound 2j, (±)-3-Tert-butyl 5-ethyl 4-(3-cyanophenyl)-2,6-dimethyl-1,4-dihydropyridine-3,5-dicarboxylate] | 17% | 10% | – (Only GI% ≥ 10 are shown) | – (Only GI% ≥ 10 are shown) | – (Only GI% ≥ 10 are shown) | – (Only GI% ≥ 10 are shown) | – (Only GI% ≥ 10 are shown) | 10% | – (Only GI% ≥ 10 are shown) | – (Only GI% ≥ 10 are shown) | – (Only GI% ≥ 10 are shown) | – (Only GI% ≥ 10 are shown) | – (Only GI% ≥ 10 are shown) | 152 to 153 °C | 20 mm | 86% and 86.9% | 19 mm | 70% and 70.4% | 8 µg/mL (≈ 20.9 µM) | 4 µg/mL (≈ 10.5 µM) | MIC (E. coli): 1 µg/mL (≈ 2.61 µM); MIC (P. aeruginosa): 4 µg/mL (≈ 10.5 µM); MIC (C. albicans; [4]): 16 µg/mL (≈ 41.8 µM); MIC (A. flavus): 8 µg/mL (≈ 20.9 µM) |
